Data reported in US10493061B2, “Compositions and methods comprising 2-(acylamino)imidazoles” (priority 2014, dated 2019).

Tests used:
[1] = system: MCF-10A normal mammary epithelial cell line; test: Dose response, luciferase-based ATP (ATPlite) viability assay; assay type: cell-based, human; conditions: five days of treatment
[2] = system: metal trafficking genes in MCF-7, T47D, MDA-MB-231 and MCF-10A cells; test: Real-time PCR of metal trafficking genes; assay type: cell-based, human; conditions: 30 μM ZNA, 3 or 24 hours, four cell lines
Protocol: Real-Time PCR (RT-PCR): For experiments designed to measure gene expression, real-time PCR (RT-PCR) was conducted using a LightCycler 480 (Roche, Basel, Switzerland) and KAPA SYBR FAST qPCR Master Mix (Kapa Biosystems, Boston, Mass., USA). […] Genomic DNA was removed with a DNase digest and 1 μg of RNA was used to synthesize cDNA using a Superscript III Reverse Transcriptase kit from Invitrogen per the manufacturer's protocol; after an RNase H digestion, RT-PCR was performed in a 5 μL reaction using KAPA SYBR FAST qPCR Master Mix (Kapa Biosystems, Boston, Mass., USA). The following primer sets were used: MT1F 5′-[…] -3′ (SEQ ID NO:1) and 5′-[…] -3′ (SEQ ID NO:2); MT1X 5′-[…] -3′ (SEQ ID NO:3) and 5′-[…] -3′ (SEQ ID NO:4); MT2A 5′-[…] -3′ (SEQ ID NO:5) and 5′-[…] -3′ (SEQ ID NO:6); SLC30A2 5′-[…] -3′ (SEQ ID NO:7) and 5′-[…] -3′ (SEQ ID NO:8); SLC30A1 5′-[…] -3′ (SEQ ID NO:9) and 5′-[…] -3′ (SEQ ID NO:10). Data were normalized to an internal reference gene (GAPDH 5′-[…] -3′ (SEQ ID NO:11) and 5′-[…] -3′ (SEQ ID NO:12)) and relative gene expression was assessed using the comparative CT method set forth in Schmittgen T D, Livak K J. Analyzing real-time PCR data by the comparative CT method. Nat Protocols 2008; 3(6):1101-08. For tissue derived from mouse in vivo experiments, fresh tissue was homogenized using a TissueLyser II for 3 minutes at 30 Hz before isolating RNA. […]

[3] = Zn^2+ binding, (ZNA)2Zn dimer formation (MeOH precipitation, X-ray, NMR)
From the text: The structure of the solid product was confirmed by X-ray crystallography (FIG. 14B). […] HCl in D2O protonates the ligand off the metal center, as evidenced by the disappearance of the diastereotopic benzyllic AB quartet in the dimer and its appearance as a singlet in the monomer. […] Of the analogues evaluated, those with more electron-donating groups at C5 or on the N^2-carbonyl seem to improve activity.

[4] = system: hTERT-HMEC normal mammary epithelial cells; test: Dose response, ATP cell viability assay; assay type: cell-based, human
[5] = system: cancer cells (malignant cell types tested); test: Clonogenic cell survival assay; conditions: 24 hours ZNA, then three weeks of growth, crystal violet
Protocol: Clonogenic cell survival assays were conducted as described in Franken NAP, Rodermond H M, Stap J, Haveman J, van Bree C.
Further experiments were also conducted to assess the effects of short-term ZNA treatment on long-term cell survival and proliferation. Cells were treated for 24 hours with ZNA then cultured in the absence of the small molecule; following three weeks of growth, colonies were stained with crystal violet and quantified (FIG. 1D).

[6] = system: pleural effusion (PE1100025) primary metastatic breast cancer cells; test: 12-point dose response, ATP cell viability assay; assay type: cell-based, human; conditions: 12-point dose response
[7] = system: LC3 in MCF-10A cells; test: Western blot of autophagosome-associated protein LC3A/B; assay type: cell-based, human
Protocol: Western blot analysis: For analysis of protein expression by Western blot analysis, the procedure set forth in Gligorich et al. was used. Gligorich K, Vaden R, Shelton D, Wang G, Matsen C, Looper R, et al. Development of a screen to identify selective small molecules active against patient-derived metastatic and chemoresistant breast cancer cells. Breast Cancer Res 2013; 15(4):R58. The cells were cultured and treated in 10-cm plates. Cells were harvested in cold radioimmunoprecipitation assay (RIPA) buffer (50 mM Tris-HCl, 150 mM NaCl, 0.1% sodium dodecyl sulfate (SDS), 0.5% sodium deoxycholate, and 1% Triton X-100) supplemented with protease and phosphatase inhibitors (Sigma). Protein concentration was measured using a BCA assay (Thermo Scientific) and […] of protein was resolved by gel electrophoresis using an SDS polyacrylamide gel. Protein was transferred to an Immobilon-FL PVDF membrane (Millipore, Billerica, Mass., USA) and the membrane was blocked for 1 hour at room temperature with Odyssey blocking buffer (Li—COR). […]
Further cell death characterization studies were also conducted to establish the role of autophagy in ZNA-mediated cell death. To assess the level of autophagic induction following treatment with ZNA, levels of the autophagosome-associated protein LC3A/B were measured by western blot analysis. […]

Question: With `COc1ccc(-c2c(Cc3ccccc3)[nH]/c(=N\C(=O)c3ccccc3F)n2C)cc1` [ZNA, (E)-N-(4-benzyl-5-(4-methoxyphenyl)-1-methyl-1H-imidazol-2(3H)-ylidene)-2-fluorobenzamide] as the compound, how does the cell viability [1] read?
Answer: largely unaffected

Question: What about the “transcription of metal trafficking genes” value [2] of the same compound?
Answer: stimulated transcriptional increases

Question: And the “Zn^2+ binding” value [3]?
Answer: binds Zn^2+ in a pH dependent fashion

Question: What about the cell viability [4] of the same compound?
Answer: largely unaffected

Question: What about the “long-term proliferative potential (colonies)” value [5] of the same compound?
Answer: significantly affected long-term proliferative potential

Question: What about the cell viability [6] of the same compound?
Answer: effective at low micromolar concentrations

Question: What about the LC3 protein ([7]; 30 μM ZNA with 30 μM ZnSO4, 6 hours) of the same compound?
Answer: significant increases were not observed

Question: And the LC3 level ([7]; ZNA alone, 48 and 72 hours)?
Answer: only in the cancer cell lines
